Where two headings read alike, the source gives them in different places.
Tests used:
MMP1 = test: qRT-PCR gene expression in drug-treated fibroblasts: MMP1; format: cell-based, human; details: 4 d treatment; 50 µM; GAPDH internal control
Experimental: (§1) DMSO and water were the solvent controls for the artemisinic compounds and teas, respectively. Fibroblasts (passages 10–14) were seeded in 6-well plates in 2 mL medium at a density of 6250 cells/cm^2. After overnight attachment, media were aspirated and replaced with test drugs in growth media at the indicated concentrations and incubated at 37 °C and 5% CO2 in high humidity. After 4 d of drug treatment, cells were harvested, washed with 1× Dulbecco’s phosphate-buffered saline (DPBS; Thermo Fisher Scientific 14190136), snap frozen in liquid nitrogen, and stored at −80 °C until the time of RNA extraction for analysis.
(§2) RNA from cells after 4 d of drug treatment was isolated using the NucleoSpin RNA/protein mini kit (Macherey-Nagel, Allentown, PA, USA, 740933.50) according to the manufacturer’s instructions. The concentration of isolated RNA was measured using a Nanodrop 2000c Spectrophotometer (Thermo Scientific). Complementary DNA (cDNA) was synthesized from RNA using a QuantiTect reverse transcription kit (Qiagen, Germantown, MD, USA, 205313) following the manufacturer’s instructions. A SYBR-based PowerTrack master mix (Thermo Fisher Scientific A46012) was used to perform RT-qPCR on a QuantStudio 6 Pro Real-Time PCR system (Thermo Fisher Scientific) in 10 μL reactions.

TGFBR1 = test: qRT-PCR gene expression in drug-treated fibroblasts: TGFBR1; format: cell-based, human; details: 4 d treatment; 50 µM; GAPDH internal control
Experimental: as §1, §2

[1] = tested on: human dermal fibroblasts (CRL-2097); test: Resazurin viability assay of human dermal fibroblasts; details: for change in fibroblast viability: 50 µM
Experimental: (§3) DMSO and water were the solvent controls for the artemisinic compounds and teas, respectively. Fibroblasts (passages 10–14) were seeded in 6-well plates in 2 mL medium at a density of 6250 cells/cm^2. After overnight attachment, media were aspirated and replaced with test drugs in growth media at the indicated concentrations and incubated at 37 °C and 5% CO2 in high humidity.
(§4) After 1 or 4 d of treatment, media were aspirated and replaced with media containing resazurin (Thermo Fisher Scientific B21187.03) at a final concentration of 25 µg/mL (stock solution 0.15 mg/mL in DPBS). […] Fluorescence readings were normalized to the appropriate solvent controls.

MMP3 = test: qRT-PCR gene expression in drug-treated fibroblasts: MMP3; format: cell-based, human; details: 4 d treatment; 50 µM; GAPDH internal control
Experimental: as §1, §2

[2] = GC-MS analysis of culture media incubated with drugs in the absence of cells; format: physicochemical
[3] = tested on: smooth-muscle α-actin (α-SMA); test: Immunofluorescence staining for α-SMA in treated fibroblasts; format: cell-based, human; details: 4 d treatment, 50 µM drug or tea (A. afra 1/4X)
Text: After 1 and 4 d, cells were fixed with paraformaldehyde and stained for immunofluorescence using primary mouse anti-α-SMA (Santa Cruz Biotechnology, Dallas, TX, USA, sc-32251) and secondary goat anti-mouse IgG AlexaFluor488-conjugated antibodies (Thermo Fisher Scientific A-11001), and DNA was counterstained with Hoechst 33342 as previously described.

[4] = Thin-layer chromatography of media from drug-treated fibroblasts; format: in vitro ADME, human; details: fibroblast cultures, 50 µM
Experimental: Media were extracted 1:1 with dichloromethane overnight, after which the solvent was separated and dried. Extracts (equivalent to 1 mL media) were resuspended in dichloromethane, spotted on Si-gel 60 F254 plates (EMD Millipore, Burlington, MA, USA, cat #1.05735.0001), and run in a mobile phase of 5:11:4 dichloromethane–hexane–acetone plus 0.5% v/v acetic acid. Plates were stained with p-anisaldehyde reagent (75 mL ethanol, 2.5 mL sulfuric acid, 1 mL acetic acid, and 2 mL p-anisaldehyde (Sigma Aldrich, St. Louis, MO, USA, A88107-100G)) and heated for 10 min at 105 °C.

TGFB2 = test: qRT-PCR gene expression in drug-treated fibroblasts: TGFB2; format: cell-based, human; details: 4 d treatment; 50 µM; GAPDH internal control
Experimental: as §1, §2

[5] = tested on: ACTA2, COL1A1, COL3A1, TGFB1, TGFB2, TGFBR1, MMP1, and MMP3; test: qRT-PCR gene expression in drug-treated fibroblasts: panel of fibrosis-related marker genes; format: cell-based, human; details: 4 d treatment; 50 µM
Experimental: Drug treatments were performed as follows. […] RNA from cells after 4 d of drug treatment was isolated using the NucleoSpin RNA/protein mini kit (Macherey-Nagel, Allentown, PA, USA, 740933.50) according to the manufacturer’s instructions. The concentration of isolated RNA was measured using a Nanodrop 2000c Spectrophotometer (Thermo Scientific). […] A SYBR-based PowerTrack master mix (Thermo Fisher Scientific A46012) was used to perform RT-qPCR on a QuantStudio 6 Pro Real-Time PCR system (Thermo Fisher Scientific) in 10 μL reactions. The thermal protocol was as follows: 95 °C for 2 min, then 40 cycles of 95 °C for 15 s and 60 °C for 60 s. PCR primer sequences are listed in Table 2 and were the same as used in Larson et al., 2019 [17]. Fold change in gene expression was determined using the ΔΔCT method with GAPDH as the housekeeping gene.

[6] = tested on: human dermal fibroblasts (CRL-2097); details: 50 µM
Experimental: as §3, §4

[7] = 1 d treatment, 50 µM drug or tea normalized to 50 µM ART, % of solvent control
[8] = cell-free culture media incubated 4 days, 50 µM ART drugs, GC-MS
[9] = cell-free culture media, 50 µM ART drugs, GC-MS

Structure (SMILES): C[C@H]1[C@@H](O)O[C@@H]2O[C@@]3(C)CC[C@H]4[C@H](C)CC[C@@H]1[C@@]24OO3 [DHA, dihydroartemisinin]
- increase in MMP1 expression, fold change vs. solvent control (MMP1): 8 fold
- decrease in TGFBR1 expression, fold change vs. solvent control (TGFBR1): 4 fold
- decrease in fibroblast viability [1, 7]: ~45%
- increase in MMP3 expression, fold change vs. solvent control (MMP3): 51.8 fold
- concentration of dART in culture media, Day 4 [2, 8]: 6900 ng/mL
- concentration of dART in culture media, Day 0 [2, 9]: 0 ng/mL
- α-SMA staining compared to solvent control [3]: considerably decreased
- treatment drug remaining in media (TLC) ([4]; after day 1): nearly gone
- dART in media (TLC) ([4]; day 4): observed
- treatment drug (ART for the tea) remaining in media (TLC) ([4]; day 4): undetectable
- decrease in TGFB2 expression, fold change vs. solvent control (TGFB2): 3.7 fold

Structure (SMILES): C[C@@H]1CC[C@H]2[C@@H](C)C(=O)O[C@@H]3O[C@@]4(C)CC[C@@H]1[C@]32OO4 [ART, artemisinin]
- change in fibroblast viability ([1]; 1 d exposure, vs solvent control): no significant change
- decrease in fibroblast viability ([1]; 4 d treatment, 50 µM drug or tea infusion, % of respective control): about 20%
- concentration of dART in culture media, Day 4 [2, 8]: 500 ng/mL
- concentration of the treatment drug (ART for the tea) in culture media, Day 4 ([2]; cell-free culture media incubated 4 days, 50 µM ART drugs, GC-MS, ND = not detected): 420 ng/mL
- concentration of dART in culture media, Day 0 [2, 9]: 0 ng/mL
- ART disappeared ([2]; day 4, cell-free culture media): > 99%
- α-SMA staining compared to solvent control [3]: substantial increase
- effects on the expressions of other markers (other than MMP1) [5]: lacked effects

Structure (SMILES): CO[C@H]1O[C@@H]2O[C@@]3(C)CC[C@H]4[C@H](C)CC[C@@H]([C@H]1C)[C@@]24OO3 [AM, artemether]
- change in fibroblast viability [6]: no significant change

Structure (SMILES): C[C@@H]1CC[C@H]2[C@@H](C)C(=O)O[C@@H]3O[C@@]4(C)CC[C@@H]1[C@]32O4 [dART, deoxyartemisinin]
- change in fibroblast viability ([1]; 4 d treatment, vs control): no change

Structure (SMILES): C[C@H]1[C@H](OC(=O)CCC(=O)O)O[C@@H]2O[C@@]3(C)CC[C@H]4[C@H](C)CC[C@@H]1[C@@]24OO3 [AS, artesunate]
- decrease in fibroblast viability [1, 7]: ~35%
- concentration of dART in culture media, Day 4 [2, 8]: 1500 ng/mL
- concentration of dART in culture media, Day 0 [2, 9]: 0 ng/mL
- α-SMA staining compared to solvent control [3]: considerably decreased

Source: paper PMC11085156 (Molecules, 2024)
